Literature values, collected in US20240317846A1 (priority 2021, published 2024).

System: COVID-19
Conditions: non-significant trend; cited from earlier work

For “Mavrilimumab: monoclonal antibody that acts as a GM-CSF alpha-receptor antagonist”, the “Improvement in survival without requirement for supplemental oxygen” value is given as 48%.
